Assay results as given in US5380646A, “Thrombus detection using radiolabelled disintegrins” (Temple University of the Commonwealth System of Higher …, priority 1992, dated 1995).
Ends that are not written are not given here.

Key:
thrombi = conditions: literature, in words; cited from earlier work
pulmonary emboli [1] = test: Comparison of short Arg-Gly-Asp peptides to disintegrins in dog, pulmonary emboli (Example 7); format: in vivo; conditions: PE; 4 hrs
Protocol: In this example of thrombi and emboli in a dog, the radioactivity target:background ratios were determined qualitatively by imaging and quantitatively by tissue sampling. Higher ratios are due to the increased target specificity of the radiolabel carrier. Significant measurements presented in this study are the relative ratio of counts from the target tissue (thrombus and pulmonary emboli) to background entities (muscle, vessels blood etc.). […] Thrombus uptake data, such as the percent injected radiolabel dose per gram of thrombus (% id/g thrombus), thrombus-to-blood (=100×% id/g thrombus.div.%id/g blood) and thrombus-to-muscle ratios (=100×%id/g thrombus.div.%id/g muscle) were calculated from the tissue sample count data discussed below.
To create a model of pulmonary embolus, an incision was made in the corresponding location on the left leg of the dog. […] The catheter and guide wire were withdrawn. The incision was closed with 2-0 silk.
Twenty-four hours after placement of the coils, anesthesia was induced as before. The urinary bladder was catheterized to collect urine. A large field of view gamma camera (General Electric, Milwaukee, Wis.) was positioned over the dog for an anterior view of the chest. The camera was fitted with a low-energy all-purpose collimator and was set to acquire the 159 keV photopeak of ^123 I with a 20% window. A Macintosh IIx computer was interfaced to the camera using a NucLear Mac A/D board and software (Scientific Imaging, Denver, Colo.). […] The ^125 -fibrinogen served as a control, since it has been studied previously in this dog model.
[…] A blood sample was drawn and 0.3 cc was transferred into each of two pre-weighed tubes. The animal was euthanized with intracardiac injection of KCl saturated solution. The vein segment containing the thrombus was carefully removed and dissected to separate the thrombus, coil, Dacron fibers and vessel wall. Each of these samples was placed on tared paper and weighed (wet weight). Similar size samples of control vessel (femoral vein from the control side) and skeletal muscle (from the thigh) were also collected and weighed. The "abnormal vessel" was the sample of vein from which the thrombus was dissected. The "control vessel" was the identical control vessel from the opposite leg. The control vessel Was not injured and therefore should not have significant uptake of radiotracer. Each sample was then placed in a counting tube and counted along with a saved aliquot of the injected dose as a standard, in a well counter. After counting, samples were held for decay of ^123 I and recounted in a lower energy window to collect the counts from ^125 I.
The imaging ability of the small peptides was compared to that of the ^123 I-labelled disintegrins in the Example 6 dog model. […]

femoral clot = test: Comparison of short Arg-Gly-Asp peptides to disintegrins in dog, femoral clot (Example 7); format: in vivo; conditions: T:B at least 4:1 in extremities, 9:1 in chest
Protocol: In this example of thrombi and emboli in a dog, the radioactivity target:background ratios were determined qualitatively by imaging and quantitatively by tissue sampling. […] Significant measurements presented in this study are the relative ratio of counts from the target tissue (thrombus and pulmonary emboli) to background entities (muscle, vessels blood etc.). […] Thrombus uptake data, such as the percent injected radiolabel dose per gram of thrombus (% id/g thrombus), thrombus-to-blood (=100×% id/g thrombus.div.%id/g blood) and thrombus-to-muscle ratios (=100×%id/g thrombus.div.%id/g muscle) were calculated from the tissue sample count data discussed below.
A female mongrel dog weighing 40 lbs was fasted overnight. The dog was sedated with an intramuscular injection of a mixture of ketamine hydrochloride and acepromazine maleate. General anesthesia was induced with intravenous pentobarbital (20 mg/kg). After shaving and washing the dog's skin, a 3-cm incision was made in the right groin area. Using blunt dissection, a segment of the femoral vein was located and freed from surrounding tissue for a length of 1 inch. […]
At 2 hours and 45 min. post injection, deep anesthesia was induced by intravenous administration of 30 mg/kg pentobarbital. […] Each sample was then placed in a counting tube and counted along with a saved aliquot of the injected dose as a standard, in a well counter. […]

pulmonary emboli [2] = conditions: literature, in words; cited from earlier work

## streptokinase
thrombi
  ability to image or detect thrombi: only with marginal success

## urokinase
thrombi
  ability to image or detect thrombi: only with marginal success

## ^123 I-eristostatin: eristostatin, disintegrin from Eristocophis macmahoni, radioiodinated with ^123 I (QEEPCATGPCCRRCKFKRAGKVCRVARGDWNDDYCTGKSCDCPRNPWN; cysteine pairing not given here; also: radioiodinated with 123I, place not given here)
Pulmonary emboli [1]
  AV:CV abnormal (injured) vessel:control vessel label ratio: 1.2
  Percent Injected Dose Per Gram of Thrombus: 0.1205 % id/g
  T:B thrombus:blood ratio: 8.6
  T:M thrombus:muscle ratio: 40.6
Femoral clot
  target:background ratios versus medically acceptable range for imaging: medically significant background ratios for imaging of thrombi

## Fibronectin
Pulmonary emboli [2]
  ability to image pulmonary emboli: not been useful for imaging pulmonary emboli

## Heparin [reference compound]
thrombi
  ability to image or detect thrombi: not been found successful as an agent for imaging thrombi
